Several values for one entry are separate records, joined by “and”; a condition that tells them apart may be missing. Identical values can stand only once.
Test system: 699152-130-R-J1-PDC complex spheroid viability
Assay: Anticancer human tumor 699152-130-R-J1-PDC patient-derived pancreatic carcinoma cell line growth inhibition [POLQ]
Settings: for viability, T/C: stronger effect = lower value
Protocol: Multicellular complex tumor spheroid response to Polymerase (POL) inhibitors (novobiocin, ART-558, RP6685) in combination with a variety of drugs and investigational agents in selected tumor cell lines
The POL inhibitors (novobiocin, ART-558, and RP6685) were evaluated both individually and in combination with standard of care and investigational anticancer small molecules within a complex spheroid model of solid tumors. . Complex spheroids include a stromal component modeled by human endothelial cells (HUVEC) and fibroblasts modeled by human mesenchymal stem cells (MSCs). The concentration ranges selected for each drug and investigational agent were based upon clinically achievable concentrations if the clinical Cmax of the agent was known.
Compounds. The drugs and investigational agents: novobiocin (NSC847541), ART-558 (NSC835418), RP-6685 (NSC848927), peposertib (NSC802822), ceralasertib (NSC780249), elimusertib (NSC800525), camonsertib (NSC841442), AZD-1390 (NSC803789), olaparib (NSC753686), talazoparib (NSC767125), rucaparib (NSC756644), sotorasib (NSC818433), MRTX-1133 (NSC836407), SN-38 (NSC673596), topotecan (NSC609699), epotoside (NSC141540), doxorubicin (NSC123127), gemcitabine (NSC613327), 5-fluorouracil (NSC19893), paclitaxel (NSC125973), vemurafenib (NSC761431), MSA-2 (NSC828583), SN-011 (NSC837082), adavosertib (NSC754352), prexasertib (NSC758257), carboplatin (NSC241240) and oxaliplatin (NSC266046), were obtained from the National Cancer Institute (NCI) Developmental Therapeutics Program Chemical Repository (21). The FDA-approved anticancer drug set is available from the Developmental Therapeutics Program at https://dtp.cancer.gov/organization/dscb/obtaining/. […] The stock solutions were prepared in dimethyl sulfoxide (DMSO, Sigma-Aldrich, St. Louis, MO, cat. D2650), except for the platinum compounds which were prepared in saline (Quality Biological, Gaithersburg, MD, cat. 114-055-101), at 800-fold the tested concentration and stored at -70 degrees C prior to their use. All drugs and investigational agents were tested over a range starting from a high concentration at or near the clinical Cmax and decreasing in half-log increments. If the clinical Cmax for an agent had not been determined, the highest concentration tested was 10 microM, except for SN-38, which was tested at a high concentration of 1 microM.
Cell Culture. All cells were maintained in an incubator at 37 degrees C and 5% CO2 with 95% humidity. The PDC lines were cultured according to standard operating procedures established by the NCI PDMR (https://pdmr.cancer.gov). Table 3 of the manuscript, lists the cell lines along with the number of the three cell types plated to form the mct-spheroids and media for tumor cell growth. After thawing, all PDC lines, except 997537-175-T-J1-PDC and 415267-285-R-J2-PDC, were cultured in Matrigel-coated flasks prepared with a working solution of 1X Ham's F-12 nutrient mix, without supplementation (Thermo Fisher Scientific, cat. 11765054), 100 U/mL penicillin-streptomycin (Thermo Fisher Scientific, cat. 15140122), and 2.5% Matrigel (Corning Inc., Corning, NY, cat. 354248) for the first three passages. The two PDC lines 997537-175-T-J1-PDC and 415267-285-R-J2-PDC were cultured on uncoated flasks. The 857933-349-R-J2-PDC line was cultured in 6C/Colon 1B media containing advanced DMEM/F-12 (Thermo Fisher Scientific, cat. 12634028), 10 mM HEPES (Thermo Fisher Scientific, cat. 15630080), 1X GlutaMAX supplement (Thermo Fisher Scientific, cat. 35050061), 0.1 mg/mL primocin (InvivoGen, San Diego, CA, cat. ant-pm-2), 10% defined fetal bovine serum, heat inactivated (HyClone Laboratories Inc., Logan, UT, cat. SH30070.03HI), 50% L-WRN conditioned media (ATCC, cat. CRL-3276), 1.25 mM N-Acetyl-L-cysteine (Sigma-Aldrich, cat. A9165), 10 mM nicotinamide (Sigma-Aldrich, cat. N0636), 1X B-27 supplement (Thermo Fisher Scientific, cat. 17504044), 1X N-2 supplement (Thermo Fisher Scientific, cat. […]

[1] = curve of first compound, second compound 0.0316 µM
[2] = curve of first compound, second compound 0.1 µM
[3] = curve of first compound, second compound 0.316 µM
[4] = curve of first compound, second compound 1 µM
[5] = curve of first compound, second compound 3.16 µM
[6] = curve of first compound, second compound 10 µM
[7] = second compound 0.0316 µM, first compound 0.0316 µM
[8] = second compound 0.0316 µM, first compound 0.1 µM
[9] = second compound 0.0316 µM, first compound 0.316 µM
[10] = second compound 0.0316 µM, first compound 1 µM
[11] = second compound 0.0316 µM, first compound 3.16 µM
[12] = second compound 0.0316 µM, first compound 10 µM
[13] = second compound 0.1 µM, first compound 0.0316 µM
[14] = second compound 0.1 µM, first compound 0.1 µM
[15] = second compound 0.1 µM, first compound 0.316 µM
[16] = second compound 0.1 µM, first compound 1 µM
[17] = second compound 0.1 µM, first compound 3.16 µM
[18] = second compound 0.1 µM, first compound 10 µM
[19] = second compound 0.316 µM, first compound 0.0316 µM
[20] = second compound 0.316 µM, first compound 0.1 µM
[21] = second compound 0.316 µM, first compound 0.316 µM
[22] = second compound 0.316 µM, first compound 1 µM
[23] = second compound 0.316 µM, first compound 3.16 µM
[24] = second compound 0.316 µM, first compound 10 µM
[25] = second compound 1 µM, first compound 0.0316 µM
[26] = second compound 1 µM, first compound 0.1 µM
[27] = second compound 1 µM, first compound 0.316 µM
[28] = second compound 1 µM, first compound 1 µM
[29] = second compound 1 µM, first compound 3.16 µM
[30] = second compound 1 µM, first compound 10 µM
[31] = second compound 3.16 µM, first compound 0.0316 µM
[32] = second compound 3.16 µM, first compound 0.1 µM
[33] = second compound 3.16 µM, first compound 0.316 µM
[34] = second compound 3.16 µM, first compound 1 µM
[35] = second compound 3.16 µM, first compound 3.16 µM
[36] = second compound 3.16 µM, first compound 10 µM
[37] = second compound 10 µM, first compound 0.0316 µM
[38] = second compound 10 µM, first compound 0.1 µM
[39] = second compound 10 µM, first compound 0.316 µM
[40] = second compound 10 µM, first compound 1 µM
[41] = second compound 10 µM, first compound 3.16 µM
[42] = second compound 10 µM, first compound 10 µM
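Further: spheroids exposed to agents for 7 days before viability reading.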
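Wherever viability, T/C is given: percent of DMSO vehicle control viability so 100% = vehicle and 0% = no viable signal.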

CC1COCCN1c1cc(-c2ccnn2C)c2ccnc(-c3ccn[nH]3)c2n1 (configuration not stated) + Cc1cccc(N(C)C(=O)C2C(O)CCN2c2nc(C)cc(C(F)(F)F)c2C#N)c1
IC50 [1]: 2.33 µM
IC50 [2]: > 10 µM
IC50 [3]: 3.97 µM
IC50 [4]: 5.14 µM
IC50 [5]: > 10 µM
IC50 [6]: > 10 µM
viability, T/C [7]: 98.3%
viability, T/C [8]: 99.1%
viability, T/C [9]: 74.4%
viability, T/C [10]: 58%
viability, T/C [11]: 47.8%
viability, T/C [12]: 45.4%
viability, T/C [13]: 93.9%
viability, T/C [14]: 90.3%
viability, T/C [15]: 75.2%
viability, T/C [16]: 59.4%
viability, T/C [17]: 62.2%
viability, T/C [18]: 56.1%
viability, T/C [19]: 92.2%
viability, T/C [20]: 86.8%
viability, T/C [21]: 75.5%
viability, T/C [22]: 58.6%
viability, T/C [23]: 46.3%
viability, T/C [24]: 51.8%
viability, T/C [25]: 107%
viability, T/C [26]: 89%
viability, T/C [27]: 70.9%
viability, T/C [28]: 59%
viability, T/C [29]: 50.2%
viability, T/C [30]: 48.8%
viability, T/C [31]: 109%
viability, T/C [32]: 108%
viability, T/C [33]: 69.4%
viability, T/C [34]: 55.2%
viability, T/C [35]: 51.1%
viability, T/C [36]: 51.3%
viability, T/C [37]: 94.7%
viability, T/C [38]: 86.5%
viability, T/C [39]: 75.8%
viability, T/C [40]: 65.4%
viability, T/C [41]: 52.6%
viability, T/C [42]: 53.8%

CCc1cc2c(N3CCc4c(cc(Cn5ccnc5)cc4-c4cn(C)nc4C(F)(F)F)C3=O)cc(C)nc2c(OC)n1 + Cc1cccc(N(C)C(=O)C2C(O)CCN2c2nc(C)cc(C(F)(F)F)c2C#N)c1
IC50 [1]: > 10 µM
IC50 [2]: > 10 µM
IC50 [3]: > 10 µM
IC50 [4]: > 10 µM
IC50 [5]: > 10 µM
IC50 [6]: > 10 µM
viability, T/C [7]: 88%
viability, T/C [8]: 96.5%
viability, T/C [9]: 89.3%
viability, T/C [10]: 94.1%
viability, T/C [11]: 92.9%
viability, T/C [12]: 102%
viability, T/C [13]: 90.8%
viability, T/C [14]: 93.2%
viability, T/C [15]: 95.4%
viability, T/C [16]: 97.1%
viability, T/C [17]: 91.1%
viability, T/C [18]: 98%
viability, T/C [19]: 94.3%
viability, T/C [20]: 94.5%
viability, T/C [21]: 96.9%
viability, T/C [22]: 103%
viability, T/C [23]: 93.8%
viability, T/C [24]: 99.8%
viability, T/C [25]: 97.1%
viability, T/C [26]: 89.5%
viability, T/C [27]: 98.8%
viability, T/C [28]: 94%
viability, T/C [29]: 91.9%
viability, T/C [30]: 88.7%
viability, T/C [31]: 104%
viability, T/C [32]: 100%
viability, T/C [33]: 92.2%
viability, T/C [34]: 90.5%
viability, T/C [35]: 101%
viability, T/C [36]: 96.9%
viability, T/C [37]: 84.8%
viability, T/C [38]: 93.5%
viability, T/C [39]: 94.5%
viability, T/C [40]: 96.1%
viability, T/C [41]: 86%
viability, T/C [42]: 89.8%

CC1COCCN1c1cc(C2(O)CC3CCC(C2)O3)c2cnn(-c3ccn[nH]3)c2n1 (configuration not stated)
viability, T/C (compound 0.0316 µM): 85.2% and 93.5% and 88.1%
viability, T/C (compound 0.1 µM): 80.7% and 83.5% and 80%
viability, T/C (compound 0.316 µM): 65.9% and 63.9% and 67.3%
viability, T/C (compound 1 µM): 56% and 53.3% and 57.5%
viability, T/C (compound 3.16 µM): 47.1% and 48.7% and 44.4%
viability, T/C (compound 10 µM): 35.8% and 33.2% and 36.5%
IC50 (curve of compound): 1.99 µM and 1.72 µM and 1.94 µM

COc1ccc([C@@H](O)c2cc(-c3ncnc4cc(N5CCOCC5)ccc34)c(F)cc2Cl)nn1
viability, T/C (compound 0.0316 µM): 111% and 87.9% and 88.4%
viability, T/C (compound 0.1 µM): 96.7% and 92.9% and 106%
viability, T/C (compound 0.316 µM): 94.5% and 88.7% and 79.7%
viability, T/C (compound 1 µM): 84.6% and 77.3% and 75%
viability, T/C (compound 3.16 µM): 49.6% and 50.5% and 60.4%
viability, T/C (compound 10 µM): 23.9% and 19.9% and 19.4%
IC50 (curve of compound): 3.41 µM and 3.19 µM and 3.96 µM

Cn1ncnc1[C@H]1c2n[nH]c(=O)c3cc(F)cc(c23)N[C@@H]1c1ccc(F)cc1
viability, T/C (compound 0.000316 µM): 94.3% and 91% and 102%
viability, T/C (compound 0.001 µM): 88.8% and 78.8% and 93%
viability, T/C (compound 0.00316 µM): 95% and 104% and 108%
viability, T/C (compound 0.01 µM): 80.8% and 104% and 106%
viability, T/C (compound 0.0316 µM): 83.2% and 89.8% and 97.3%
viability, T/C (compound 0.1 µM): 86.5% and 95.5% and 92.5%
IC50 (curve of compound): > 0.1 µM

COc1cc(C2c3cc4c(cc3C(OC3OC5COC(C)OC5C(O)C3O)C3COC(=O)C23)OCO4)cc(OC)c1O (configuration not stated) + Nc1ccc(C#CCN(C(=O)Cc2ncc(C(F)(F)F)cc2C(F)(F)F)c2ccc(F)cc2)nn1
IC50 [1]: 9.72 µM
IC50 [2]: 5.57 µM
IC50 [3]: 3.86 µM
IC50 [4]: 4.26 µM
IC50 [5]: 6.31 µM
IC50 [6]: 8.26 µM
viability, T/C [7]: 85.2%
viability, T/C [8]: 84.2%
viability, T/C [9]: 79.5%
viability, T/C [10]: 76.3%
viability, T/C [11]: 53.9%
viability, T/C [12]: 50.1%
viability, T/C [13]: 105%
viability, T/C [14]: 89%
viability, T/C [15]: 77.9%
viability, T/C [16]: 70.5%
viability, T/C [17]: 52.5%
viability, T/C [18]: 44.9%
viability, T/C [19]: 108%
viability, T/C [20]: 90.6%
viability, T/C [21]: 79.8%
viability, T/C [22]: 69.1%
viability, T/C [23]: 48.1%
viability, T/C [24]: 41.2%
viability, T/C [25]: 92.2%
viability, T/C [26]: 81.9%
viability, T/C [27]: 78%
viability, T/C [28]: 74.9%
viability, T/C [29]: 49.6%
viability, T/C [30]: 48.8%
viability, T/C [31]: 103%
viability, T/C [32]: 85%
viability, T/C [33]: 81%
viability, T/C [34]: 69.2%
viability, T/C [35]: 53.1%
viability, T/C [36]: 46.8%
viability, T/C [37]: 115%
viability, T/C [38]: 85.6%
viability, T/C [39]: 89.4%
viability, T/C [40]: 65.8%
viability, T/C [41]: 53%
viability, T/C [42]: 50.7%

Reference: PubChem BioAssay AID1963835 (Molecular Pharmacology Branch, DTP, NCI, 2024)
